Test results reported in ChEMBL document CHEMBL4610096, “Anti-inflammatory neo-Clerodane Diterpenoids from Ajuga pantantha” (J Nat Prod, 2020).
Activity calls are given as the source filed them. No cut-off for these calls is given here.

Columns and labels:
BV-2 [1] = assay: Antiinflammatory activity in mouse BV2 cells assessed as reduction in LPS-induced nitric oxide production by griess assay; format: functional, cell-based
BV-2 [2] = assay: Cytotoxicity against mouse BV2 cells assessed as reduction in cell viability; format: cell-based
BV-2 [3] = assay: Antiinflammatory activity in mouse BV2 cells assessed as reduction in LPS-induced COX2 expression at 10 to 100 uM preincubated for 30 mins followed by LPS stimulation and measured after 24 hrs by Western blot analysis; format: functional, cell-based
BV-2 [4] = assay: Antiinflammatory activity in mouse BV2 cells assessed as reduction in LPS-induced iNOS expression at 10 to 100 uM preincubated for 30 mins followed by LPS stimulation and measured after 24 hrs by Western blot analysis; format: functional, cell-based

| SMILES | IC50 (BV-2 [1]) | Activity (BV-2 [2]) | Activity (BV-2 [3]) | Activity (BV-2 [4]) |
| --- | --- | --- | --- | --- |
| CC[C@H](C)C(=O)O[C@@H](C[C@@]1(C)[C@H](C)C[C@H](O)[C@]2(C)[C@@H]1CCC[C@H]2C(=O)OC)C1=CC(=O)OC1 | 45 µM | Non-Toxic | – | – |
| C/C=C(\C)C(=O)O[C@@H](C[C@@]1(C)[C@H](C)C[C@H](O)[C@]2(C)[C@@H]1CCC[C@H]2C(=O)OC)C1=CC(=O)OC1 | 25.8 µM | Non-Toxic | Active | Active |
| C/C=C(\C)C(=O)OC[C@@]12[C@H](CCC[C@]1(O)CCl)[C@@](C)(CCC1=CC(=O)OC1)[C@H](C)C[C@@H]2O | 20.2 µM | Non-Toxic | Active | Active |
| CSC(=N)N | 2.4 µM | – | – | – |
| COC(=O)C/C(C=O)=C\C[C@@]1(C)[C@H](C)C[C@H](OC(C)=O)[C@]2(COC(C)=O)[C@@H]1[C@H](O)CC[C@]21CO1 | > 100 µM | Non-Toxic | – | – |
